Results reported in PMC11124822, “Discovery and Anticancer Screening of Novel Oxindole-Based Derivative Bearing Pyridyl Group as Potent and Selective Dual FLT3/CDK2 Kinase Inhibitor” (Pharmaceuticals, 2024).

Assays:
CCRF-CEM = test: NCI-60 antiproliferative screen (SRB); format: cell-based, human; settings: Homo sapiens; 10 µM single dose, 48 h; CCRF-CEM (Leukemia); read-out: Growth inhibition (%)
NCI-H226 = test: NCI-60 antiproliferative screen (SRB); format: cell-based, human; settings: Homo sapiens; 10 µM single dose, 48 h; NCI-H226 (NSCLC); read-out: Growth inhibition (%)
U251 = test: NCI-60 antiproliferative screen (SRB); format: cell-based, human; settings: Homo sapiens, U-251; 10 µM single dose, 48 h; U251 (CNS); read-out: Growth inhibition (%)
MDA-MB-468 = test: NCI-60 antiproliferative screen (SRB); format: cell-based, human; settings: Homo sapiens; 10 µM single dose, 48 h; MDA-MB-468 (Breast); read-out: Growth inhibition (%)
SF-295 = test: NCI-60 antiproliferative screen (SRB); format: cell-based, human; settings: Homo sapiens; 10 µM single dose, 48 h; SF-295 (CNS); read-out: Growth inhibition (%)
OVCAR-8 = test: NCI-60 antiproliferative screen (SRB); format: cell-based, human; settings: Homo sapiens; 10 µM single dose, 48 h; OVCAR-8 (Ovarian); read-out: Growth inhibition (%)
CAKI-1 = test: NCI-60 antiproliferative screen (SRB); format: cell-based, human; settings: Homo sapiens; 10 µM single dose, 48 h; CAKI-1 (Renal); read-out: Growth inhibition (%)
TK-10 = test: NCI-60 antiproliferative screen (SRB); format: cell-based, human; settings: Homo sapiens; 10 µM single dose, 48 h; TK-10 (Renal); read-out: Growth inhibition (%)
[1] = system: NCI-60 human cancer cell lines; test: NCI-60 screen, full panel summary; format: cell-based; settings: 10 µM single dose; for Mean Growth Percent: all NCI-60 cell lines
Description: In a comprehensive test, compounds were assayed at a single dose concentration (10^−5 M) in the full panel of NCI-60 cancer cell lines.

PC-3 = test: NCI-60 antiproliferative screen (SRB); format: cell-based, human; settings: Homo sapiens; 10 µM single dose, 48 h; PC-3 (Prostate); read-out: Growth inhibition (%)
A549/ATCC = test: NCI-60 antiproliferative screen (SRB); format: cell-based, human; settings: Homo sapiens; 10 µM single dose, 48 h; A549/ATCC (NSCLC); read-out: Growth inhibition (%)
MDA-MB-231 = test: NCI-60 antiproliferative screen (SRB); format: cell-based, human; settings: Homo sapiens; 10 µM single dose, 48 h; MDA-MB-231 (Breast); read-out: Growth inhibition (%)
KM12 = test: NCI-60 antiproliferative screen (SRB); format: cell-based, human; settings: Homo sapiens; 10 µM single dose, 48 h; KM12 (Colon); read-out: Growth inhibition (%)
SK-MEL-28 = test: NCI-60 antiproliferative screen (SRB); format: cell-based, human; settings: Homo sapiens; 10 µM single dose, 48 h; SK-MEL-28 (Melanoma); read-out: Growth inhibition (%)
HCT-116 = test: NCI-60 antiproliferative screen (SRB); format: cell-based, human; settings: Homo sapiens; 10 µM single dose, 48 h; HCT-116 (Colon); read-out: Growth inhibition (%)
HOP-92 = test: NCI-60 antiproliferative screen (SRB); format: cell-based, human; settings: Homo sapiens; 10 µM single dose, 48 h; HOP-92 (NSCLC); read-out: Growth inhibition (%)
T-47D = test: NCI-60 antiproliferative screen (SRB); format: cell-based, human; settings: Homo sapiens, T47D; 10 µM single dose, 48 h; T-47D (Breast); read-out: Growth inhibition (%)
LOX IMVI = test: NCI-60 antiproliferative screen (SRB); format: cell-based, human; settings: Homo sapiens; 10 µM single dose, 48 h; LOX IMVI (Melanoma); read-out: Growth inhibition (%)
SK-OV-3 = test: NCI-60 antiproliferative screen (SRB); format: cell-based, human; settings: Homo sapiens; 10 µM single dose, 48 h; SK-OV-3 (Ovarian); read-out: Growth inhibition (%)
SN12C = test: NCI-60 antiproliferative screen (SRB); format: cell-based, human; settings: Homo sapiens; 10 µM single dose, 48 h; SN12C (Renal); read-out: Growth inhibition (%)
HT29 = test: NCI-60 antiproliferative screen (SRB); format: cell-based, human; settings: Homo sapiens, HT-29; 10 µM single dose, 48 h; HT29 (Colon); read-out: Growth inhibition (%)
HOP-62 = test: NCI-60 antiproliferative screen (SRB); format: cell-based, human; settings: Homo sapiens; 10 µM single dose, 48 h; HOP-62 (NSCLC); read-out: Growth inhibition (%)
SK-MEL-5 = test: NCI-60 antiproliferative screen (SRB); format: cell-based, human; settings: Homo sapiens; 10 µM single dose, 48 h; SK-MEL-5 (Melanoma); read-out: Growth inhibition (%)
EKVX = test: NCI-60 antiproliferative screen (SRB); format: cell-based, human; settings: Homo sapiens; 10 µM single dose, 48 h; EKVX (NSCLC); read-out: Growth inhibition (%)
MOLT-4 = test: NCI-60 antiproliferative screen (SRB); format: cell-based; settings: Homo sapiens; 10 µM single dose, 48 h; MOLT-4 (Leukemia); read-out: Growth inhibition (%)
RXF 393 = test: NCI-60 antiproliferative screen (SRB); format: cell-based, human; settings: Homo sapiens; 10 µM single dose, 48 h; RXF 393 (Renal); read-out: Growth inhibition (%)
SNB-19 = test: NCI-60 antiproliferative screen (SRB); format: cell-based, human; settings: Homo sapiens; 10 µM single dose, 48 h; SNB-19 (CNS); read-out: Growth inhibition (%)
IGROV1 = test: NCI-60 antiproliferative screen (SRB); format: cell-based, human; settings: Homo sapiens, IGROV-1; 10 µM single dose, 48 h; IGROV1 (Ovarian); read-out: Growth inhibition (%)

Structure (SMILES)	inhibition at 10 µM (CCRF-CEM) [%]	inhibition at 10 µM (NCI-H226) [%]	inhibition at 10 µM (U251) [%]	inhibition at 10 µM (MDA-MB-468) [%]	inhibition at 10 µM (SF-295) [%]	inhibition at 10 µM (OVCAR-8) [%]	inhibition at 10 µM (CAKI-1) [%]	inhibition at 10 µM (TK-10) [%]	Positive Cytostatic Effect (cell lines with percent growth from 0 to 50 / total number of cell lines) [1]	Positive Cytotoxic Effect (cell lines with percent growth of <0 / total number of cell lines) [1]	Sensitive/Total Cell Lines [1]	Mean Growth Percent [1]	inhibition at 10 µM (PC-3) [%]	inhibition at 10 µM (A549/ATCC) [%]	inhibition at 10 µM (KM12) [%]	inhibition at 10 µM (SK-MEL-28) [%]	inhibition at 10 µM (HCT-116) [%]	inhibition at 10 µM (HOP-92) [%]	inhibition at 10 µM (T-47D) [%]	inhibition at 10 µM (SK-OV-3) [%]	further results
O=C1Nc2ccc(Cl)cc2C1=Cc1ccc(OCc2cccnc2)cc1 (mixture of isomers) [Compound 5k, (E/Z)-5-Chloro-3-[4-(pyridin-3-ylmethoxy)benzylidene] indolin-2-one]	36.4	11.8	27.3	12.5	4.51	23.4	51	-37.8	5/56	0/56	5/56	14.49	24.3	16.1	52.8	-20.5	34.6	-1.4	23.2	5.36	inhibition at 10 µM (MDA-MB-231): 9.08%; inhibition at 10 µM (LOX IMVI): 10.1%; inhibition at 10 µM (SN12C): 9.17%; inhibition at 10 µM (HT29): 18.1%; inhibition at 10 µM (HOP-62): 0.56%; inhibition at 10 µM (SK-MEL-5): 11.4%; inhibition at 10 µM (EKVX): 16.1%; inhibition at 10 µM (MOLT-4): 52.6%; inhibition at 10 µM (RXF 393): 6.84%; melting point: 199 to 201 °C; inhibition at 10 µM (SNB-19): 22.9%
O=C1Nc2ccccc2C1=Cc1ccc(OCc2ccccn2)cc1 (mixture of isomers) [Compound 5e, (E/Z)-3-[4-(Pyridin-2-ylmethoxy]benzylidene) indolin-2-one]	57.7	40.8	46.5	61.7	27	29.7	40.8	12.7	11/56	0/56	11/56	33.37	44.3	29.2	61.3	-0.76	41.1	69	54.9	16.8	The Most Sensitive Cell Line [1]: HOP-92; inhibition at 10 µM (IGROV1): 36.8%; inhibition at 10 µM (SN12C): 47.7%; inhibition at 10 µM (HT29): 16.2%; inhibition at 10 µM (HOP-62): 25.6%; inhibition at 10 µM (SK-MEL-5): 48.4%; inhibition at 10 µM (EKVX): 47.3%; inhibition at 10 µM (MOLT-4): 62.5%; inhibition at 10 µM (RXF 393): 44.8%; melting point: 221 to 224 °C; inhibition at 10 µM (SNB-19): 39.3%
O=C1Nc2ccc(F)cc2C1=Cc1ccc(OCc2cccnc2)cc1 (mixture of isomers) [Compound 5j, (E/Z)-5-Fluoro-3-[4-(pyridin-3-ylmethoxy)benzylidene]indolin-2-one]	75	55.6	83.7	58.5	54.8	65.1	67.6	-1.92	32/56	1/56	33/56	53.95	43.6	39.4	97.3	28.2	84.7	25.8	66.7	13.2	The Most Sensitive Cell Line [1]: SK-MEL-5; number of cell lines with cytostatic effects [1]: 32; number of cell lines with cytotoxic effects [1]: 1; inhibition at 10 µM (MDA-MB-231): 42%; inhibition at 10 µM (LOX IMVI): 76.9%; inhibition at 10 µM (SN12C): 46.1%; inhibition at 10 µM (HT29): 84.1%; inhibition at 10 µM (HOP-62): 45.4%; inhibition at 10 µM (SK-MEL-5): 113%; inhibition at 10 µM (EKVX): 41%; inhibition at 10 µM (MOLT-4): 88.5%; inhibition at 10 µM (RXF 393): 37.3%; melting point: 187 to 189 °C; inhibition at 10 µM (SNB-19): 62.1%
O=C1Nc2cc(Cl)ccc2C1=Cc1ccc(OCc2ccccn2)cc1 (mixture of isomers) [Compound 5h, (E/Z)-6-Chloro-3-[4-(pyridin-2-ylmethoxy)benzylidene]indolin-2-one]	53.7	48.6	61.6	60.8	14.3	13.6	28.8	-0.24	11/56	0/56	11/56	30.77	54.7	62.5	21.6	-8.02	47.8	35.8	38	4.39	The Most Sensitive Cell Line [1]: OVCAR-4; inhibition at 10 µM (IGROV1): 26.2%; inhibition at 10 µM (SN12C): 24.9%; inhibition at 10 µM (HT29): 19.7%; inhibition at 10 µM (HOP-62): 18.9%; inhibition at 10 µM (SK-MEL-5): 24%; inhibition at 10 µM (EKVX): 49.4%; inhibition at 10 µM (MOLT-4): 61.5%; inhibition at 10 µM (RXF 393): 38.2%; melting point: 260 to 263 °C; inhibition at 10 µM (SNB-19): 20%
